Test results reported in patent US20070087330A1, “Viral deconstruction through capsid assembly in vitro” (priority 2002, published 2007).

Tests used:
[1] = system: HBV core polypeptides / HBV capsids; type: biochemical
Experimental: Following translation of HBV core transcript for 30 min, the translation product was diluted in 0.01% Nil(kol buffer and centrifuged on a 10-50% sucrose gradient. The supernatant was removed and the pellet was resuspended in buffer and divided into equal aliquots. To one aliquots was added apyrase (A, top) while the control was incubated in buffe alone (A, bottom). Incubations were done at 25° C. for 90 min. Reaction mixtures were then centrifuged on standard 10-50% sucrose gradients. Fractions were analyzed by SDS-PAGE and autoradiography. In a separate experiment (B) the pellet was isolated and resuspended in identical fashion. To one aliquot was added wheat germ extract as well as unlabeled energy mix. (B, top); to the second aliquot was added wheat germ extract and apyrase (B, botton).
To address this, pellet material was isolated by fractionating the products of a 30-min translation of HBV core on a sucrose gradient and resuspending the pellet in buffer. The resuspended pellet was divided into equal aliquots and treated either with aphyase or with buffer for 90 min at 24° C.
Treatment of the isolated pellet with apyrase and wheat germ extract (FIG. 23B, bottom).

[2] = system: HIV capsid assembly (Gag Pr55); experiment: Cell-free HIV capsid assembly in wheat germ extract, analysed by velocity sedimentation; type: biochemical
Experimental: Translation of the transcription products was carried out in wheat germ extract containing ^35S methionine (ICN Pharmaceuticals, Costa Mesa, Calif.). Wheat germ was obtained from General Mills. Wheat germ extract was prepared as described by Erickson and Blobel (1983) supra with indicated modifications. Three grams of wheat germ were placed in a mortar and ground in 10 ml homogenization buffer (100 mM K-acetate, 1 mM Mg-acetate, 2 mM CaC12, 40 mM HEPES buffer, pH 7.5 (Sigma Chemicals, St. Louis, Mo.), 4 mM dithiothreitol) to a thick paste. The homogenate was scraped into a chilled centrifuge tube and centrifuged at 4° C. for 10 min at 23,000×g. The resulting supernatant was centrifuged again under these conditions to provide an S23 wheat germ extract. Improved assembly was obtained when the S23 wheat germ extract was further subjected to ultracentrifugation at 50,000 rpm in the TLA 100 rotor (100,000×g) (Beckman Instruments, Palo Alto, Calif.) for 15 min at 4° C. and the supernatant used for in vitro translation. […] This supernatant is referred to herein as a “high speed wheat germ extract supernatant”. Reactions were performed as previously described (Lingappa, J. R., et al., J. Cell. Biol. (1984) 125:99-111), except for modifications noted below.
A 25 μl wheat germ transcription/translation reaction mixture contained: 5 μl Gag transcript, 5 μl ^35—S Energy Mix 5× stock (Sigma Chemical Co., St. Louis, Mo.), 2.5 μl Compensating Buffer (Sigma Chemical Co.), 1.0 μl 40 mM MgAcetate (Sigma Chemical Co.), 2.0 μl 125 μM Myristoyl CoA (made up in 20 mM Tris Acetate, pH 7.6; Sigma Chemical Co.), 3.75 μl 20 mM Tris Acetate buffer, […] (U.S. Biochemicals; Cleveland, Ohio), 0.25 μl creatine kinase (4 mg/ml stock in 50% glycerol, 10 mM Tris Acetate; Boehringer Mannheim, Indianapolis, Ind.), 0.25 μl bovine tRNA (10 mg/ml stock; Sigma Chemical Co.), and 0.25 μl RNAse Inhibitor (20 units/50; Promega). […]
The purpose of this experiment was to use the cell-free system for detecting HIV assembly intermediates that would be otherwise difficult or impossible to detect. A continuously labeled cell-free reaction was analyzed by velocity sedimentation. […] Upon completion of the cell-free reaction, the products were diluted into 1% NP40 sample buffer on ice, and were analyzed by velocity sedimentation on 13 ml 15-60% sucrose gradients. Fractions were collected from the top of each gradient, and the amount of radiolabeled Pr55 protein in each fraction was determined and expressed as percent of total Pr55 protein present in the reaction. The calculated positions of 10S, 80S, 150S, 500S, and 750S complexes are indicated with markers above the figures (see FIG. 3A). […]

Sequence of HBV core polypeptides / HBV capsids (P03146 whole entry): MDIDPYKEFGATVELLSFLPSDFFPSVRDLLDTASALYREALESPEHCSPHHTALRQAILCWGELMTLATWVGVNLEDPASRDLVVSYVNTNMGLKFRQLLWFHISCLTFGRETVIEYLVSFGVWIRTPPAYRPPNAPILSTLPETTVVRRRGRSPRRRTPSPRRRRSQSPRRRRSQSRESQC

**Q.** With O=C(O)CN(CCN(CC(=O)O)CC(=O)O)CC(=O)O [EDTA] as the compound, how does the “Effect on relative distribution of labeled core polypeptides in top, middle and pellet regions” value ([1]; 10 mM, translation products treated) read?
**A.** The value was “had no effect”.

**Q.** With CC[C@H]1CN2CCc3cc(OC)c(OC)cc3[C@@H]2C[C@@H]1C[C@H]1NCCc2cc(OC)c(OC)cc21 [emetine] as the compound, how does the “Effect on results of treating the isolated pellet with energy substrates or apyrase” value ([1]; protein synthesis inhibitor added) read?
**A.** Its value is “did not affect”.

**Q.** apyrase was tested. Which “A (material in fractions of assembly intermediate complex A)” value ([2]; radiolabeled Pr55 in 10S complex A, apyrase added post-translationally, detergent cotranslationally) did it give?
**A.** Its value is 2851.

**Q.** What about the “B/C (material in fractions of assembly intermediate complexes B and C)” value ([2]; radiolabeled Pr55 in 80S/150S complexes B and C, apyrase added post-translationally, detergent cotranslationally) of the same compound?
**A.** The value was 5999.

**Q.** And the “Final Capsid (material in fractions of the completed capsid)” value ([2]; radiolabeled Pr55 in 750S completed capsid position, apyrase added post-translationally, detergent cotranslationally)?
**A.** The value was 133.

**Q.** And the “Effect of treatment on assembly intermediates” value ([2]; velocity sedimentation, compared with the untreated reaction)?
**A.** Its value is “accumulation of additional material in complexes B and C”.

**Q.** What about the “Effect of treating the isolated pellet material” value ([1]; pellet of a 30-min translation, 90 min at 24° C.) of the same compound?
**A.** The value was “release of completed capsids from the pellet”.
